BindingDB's records for doi:10.1021/jm500763m (Beijing Institute of Pharmacology & Toxicology, 2014)
Peptide text beside a SMILES is read from it. * marks the point of attachment. X5 = C=C(C)[C@@H]1CC[C@]2(C(=O)OCc3cn(CC(=O)*)nn3)CC[C@]3(C)[C@H](CC[C@@H]4[C@@]5(C)CC[C@H](OC(C)=O)C(C)(C)[C@@H]5CC[C@]43C)[C@@H]12; X4 = C=C(C)[C@@H]1CC[C@]2(C(=O)OCc3cn(CC(=O)*)nn3)CC[C@]3(C)[C@H](CC[C@@H]4[C@@]5(C)CC[C@H](O)C(C)(C)[C@@H]5CC[C@]43C)[C@@H]12; X6 = CC1(C)CC[C@]2(C(=O)O)CC[C@]3(C)C(=CC[C@@H]4[C@@]5(C)CC[C@H](OC(=O)CCc6cn(CC(=O)*)nn6)C(C)(C)[C@@H]5CC[C@]43C)[C@@H]2C1; βAla = NCCC(=O)O

Test: Inhibition of HIV1 gp41-induced cell-cell fusion between viral envelope expressing human HL2/3 cells to CD4/CCR5 receptor expressing TZM-bl cells after 6 to 8 hrs by luciferase assay

Compound	EC50 [µM]
C=C(C)[C@@H]1CC[C@]2(C(=O)OCc3cn(CC(=O)NCCC(=O)N[C@@H](CC(N)=O)C(=O)N[C@@H](CC(N)=O)C(=O)N[C@@H](Cc4ccc(O)cc4)C(=O)N[C@H](C(=O)N[C@@H](CO)C(=O)N[C@@H](CC(C)C)C(=O)N[C@H](C(=O)N[C@@H](Cc4cnc[nH]4)C(=O)N[C@@H](CO)C(=O)N[C@@H](CC(C)C)C(=O)N[C@H](C(=O)N[C@@H](CCC(=O)O)C(=O)N[C@@H](CCC(=O)O)C(=O)N[C@@H](CO)C(=O)N[C@@H](CCC(N)=O)C(=O)N[C@@H](CC(N)=O)C(=O)N[C@@H](CCC(N)=O)C(=O)N[C@@H](CCC(N)=O)C(=O)N[C@@H](CCC(=O)O)C(=O)N[C@@H](CCCCN)C(=O)N[C@@H](CC(N)=O)C(=O)N[C@@H](CCC(=O)O)C(=O)N[C@@H](CCC(N)=O)C(=O)N[C@@H](CCC(=O)O)C(=O)N[C@@H](CC(C)C)C(=O)N[C@@H](CC(C)C)C(N)=O)[C@@H](C)CC)[C@@H](C)CC)[C@@H](C)O)nn3)CC[C@]3(C)[C@H](CC[C@@H]4[C@@]5(C)CC[C@H](O)C(C)(C)[C@@H]5CC[C@]43C)[C@@H]12 ({X4-βAla}-NNYTSLIHSLIEESQNQQEKNEQELL-NH2)	0.089
C=C(C)[C@@H]1CC[C@]2(C(=O)OCc3cn(CC(=O)NCCC(=O)N[C@@H](CC(N)=O)C(=O)N[C@@H](CC(N)=O)C(=O)N[C@@H](Cc4ccc(O)cc4)C(=O)N[C@H](C(=O)N[C@@H](CO)C(=O)N[C@@H](CC(C)C)C(=O)N[C@H](C(=O)N[C@@H](Cc4cnc[nH]4)C(=O)N[C@@H](CO)C(=O)N[C@@H](CC(C)C)C(=O)N[C@H](C(=O)N[C@@H](CCC(=O)O)C(=O)N[C@@H](CCC(=O)O)C(=O)N[C@@H](CO)C(=O)N[C@@H](CCC(N)=O)C(=O)N[C@@H](CC(N)=O)C(=O)N[C@@H](CCC(N)=O)C(=O)N[C@@H](CCC(N)=O)C(=O)N[C@@H](CCC(=O)O)C(=O)N[C@@H](CCCCN)C(=O)N[C@@H](CC(N)=O)C(=O)N[C@@H](CCC(=O)O)C(=O)N[C@@H](CCC(N)=O)C(=O)N[C@@H](CCC(=O)O)C(=O)N[C@@H](CC(C)C)C(=O)N[C@@H](CC(C)C)C(N)=O)[C@@H](C)CC)[C@@H](C)CC)[C@@H](C)O)nn3)CC[C@]3(C)[C@H](CC[C@@H]4[C@@]5(C)CC[C@H](OC(C)=O)C(C)(C)[C@@H]5CC[C@]43C)[C@@H]12 ({X5-βAla}-NNYTSLIHSLIEESQNQQEKNEQELL-NH2)	0.327
CC[C@H](C)[C@H](NC(=O)[C@H](CC(C)C)NC(=O)[C@H](CO)NC(=O)[C@H](Cc1cnc[nH]1)NC(=O)[C@@H](NC(=O)[C@H](CC(C)C)NC(=O)[C@H](CO)NC(=O)[C@@H](NC(=O)[C@H](Cc1ccc(O)cc1)NC(=O)[C@H](CC(N)=O)NC(=O)[C@H](CC(N)=O)NC(=O)CCNC(=O)Cn1cc(CCC(=O)O[C@H]2CC[C@]3(C)[C@H]4CC=C5[C@@H]6CC(C)(C)CC[C@]6(C(=O)O)CC[C@@]5(C)[C@]4(C)CC[C@H]3C2(C)C)nn1)[C@@H](C)O)[C@@H](C)CC)C(=O)N[C@@H](CCC(=O)O)C(=O)N[C@@H](CCC(=O)O)C(=O)N[C@@H](CO)C(=O)N[C@@H](CCC(N)=O)C(=O)N[C@@H](CC(N)=O)C(=O)N[C@@H](CCC(N)=O)C(=O)N[C@@H](CCC(N)=O)C(=O)N[C@@H](CCC(=O)O)C(=O)N[C@@H](CCCCN)C(=O)N[C@@H](CC(N)=O)C(=O)N[C@@H](CCC(=O)O)C(=O)N[C@@H](CCC(N)=O)C(=O)N[C@@H](CCC(=O)O)C(=O)N[C@@H](CC(C)C)C(=O)N[C@@H](CC(C)C)C(N)=O ({X6-βAla}-NNYTSLIHSLIEESQNQQEKNEQELL-NH2)	0.029
